In PubChem BioAssay AID330 (DTP/NCI, 2004):
Values joined by “and” are separate entries in the source; they are usually repeats but may differ in a detail not shown here. Equal values may be shown once. Toxic doses and inconclusive results are not listed.

Test system: P388 leukemia ip, CD2F1 mice, survival T/C
Assay: NCI In Vivo Anticancer Drug Screen. Data for tumor model P388 Leukemia (intraperitoneal) in CD2F1 (CDF1) mice
Settings: endpoint: median survival time, higher = longer survival
Method in brief: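 Mice carrying the transplanted tumor received test compound or vehicle. Survival was recorded in each group, and the value is the treated-group measurement divided by that of the vehicle-treated control group.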

[1] = dose: 25.0 mg/kg/injection, schedule: Q01DX009 (ip), vehicle: saline with Tween-80
[2] = dose: 50.0 mg/kg/injection, schedule: Q01DX009 (ip), vehicle: saline with Tween-80
[3] = dose: 100.0 mg/kg/injection, schedule: Q01DX009 (ip), vehicle: saline with Tween-80
[4] = dose: 200.0 mg/kg/injection, schedule: Q01DX009 (ip), vehicle: saline with Tween-80
[5] = dose: 60.0 mg/kg/injection, schedule: Q01DX005 (ip), vehicle: saline
[6] = dose: 120.0 mg/kg/injection, schedule: Q01DX005 (ip), vehicle: saline
[7] = dose: 50.0 mg/kg/injection, schedule: Q01DX005 (ip), vehicle: saline with Tween-80
[8] = dose: 3.12 mg/kg/injection, schedule: Q01DX009 (ip), vehicle: saline with Tween-80
[9] = dose: 6.25 mg/kg/injection, schedule: Q01DX009 (ip), vehicle: saline with Tween-80
[10] = dose: 12.5 mg/kg/injection, schedule: Q01DX009 (ip), vehicle: saline with Tween-80
[11] = dose: 60.0 mg/kg/injection, schedule: Q01DX005 (ip), vehicle: saline with Tween-80
[12] = dose: 120.0 mg/kg/injection, schedule: Q01DX005 (ip), vehicle: saline with Tween-80
[13] = dose: 240.0 mg/kg/injection, schedule: Q01DX005 (ip), vehicle: saline with Tween-80
[14] = dose: 100.0 mg/kg/injection, schedule: Q01DX009 (ip), vehicle: Klucel (hydroxypropylcellulose) (HPC)
[15] = dose: 200.0 mg/kg/injection, schedule: Q01DX009 (ip), vehicle: Klucel (hydroxypropylcellulose) (HPC)
[16] = dose: 100.0 mg/kg/injection, schedule: Q01DX005 (ip), vehicle: saline with Tween-80
[17] = dose: 200.0 mg/kg/injection, schedule: Q01DX005 (ip), vehicle: saline with Tween-80
[18] = dose: 60.0 mg/kg/injection, schedule: Q01DX005 (ip), vehicle: Klucel (hydroxypropylcellulose) (HPC)
[19] = dose: 120.0 mg/kg/injection, schedule: Q01DX005 (ip), vehicle: Klucel (hydroxypropylcellulose) (HPC)

## Cc1c(Cl)cnc(N)c1Cl (tested in a mixture with another compound)
[1]
  T/C: 93 % of control
[2]
  T/C: 90 % of control
[3]
  T/C: 93 % of control
[4]
  T/C: 95 % of control

## BrCC[P+](c1ccccc1)(c1ccccc1)c1ccccc1
dose: 1.56 mg/kg/injection, schedule: Q01DX009 (ip), vehicle: water
  T/C: 115 % of control
dose: 3.0 mg/kg/injection, schedule: Q01DX009 (ip), vehicle: water
  T/C: 120 % of control
dose: 6.25 mg/kg/injection, schedule: Q01DX009 (ip), vehicle: water
  T/C: 118 % of control

## O=C(O)CCSSCCCCS(=O)O
dose: 50.0 mg/kg/injection, schedule: Q01DX005 (ip), vehicle: saline
  T/C: 114 % of control
dose: 100.0 mg/kg/injection, schedule: Q01DX005 (ip), vehicle: saline
  T/C: 114 % of control
dose: 200.0 mg/kg/injection, schedule: Q01DX005 (ip), vehicle: saline
  T/C: 100 % of control

## COC(=O)CCC(N)C(=O)NC(Cc1ccccc1)C(=O)NC(C)C(=O)NC1C(O)OC(CO)C(O)C1O (stereo unspecified)
[5]
  T/C: 99 % of control
[6]
  T/C: 98 % of control
dose: 240.0 mg/kg/injection, schedule: Q01DX005 (ip), vehicle: saline
  T/C: 99 % of control

## Cc1cc(Br)c2nsnc2c1[N+](=O)[O-]
[7]
  T/C: 122 % of control

## O=c1c2cnccc2cc2n1CCc1c-2[nH]c2ccccc12
[8]
  T/C: 101 % of control
[9]
  T/C: 101 % of control and 86 % of control
[10]
  T/C: 101 % of control
[1]
  T/C: 110 % of control

## C=C1C(=O)SC(=NCc2ccccc2)N1C
[11]
  T/C: 96 % of control
[12]
  T/C: 90 % of control
[13]
  T/C: 91 % of control

## Cl/C(=C\c1ccccc1)c1nc2ccccc2nc1Cl
dose: 50.0 mg/kg/injection, schedule: Q01DX009 (ip), vehicle: Klucel (hydroxypropylcellulose) (HPC)
  T/C: 96 % of control
[14]
  T/C: 89 % of control
[15]
  T/C: 92 % of control

## Cc1ccc(NC(=O)Oc2ccc(F)cc2)c([N+](=O)[O-])c1
[2]
  T/C: 96 % of control
[3]
  T/C: 95 % of control
[4]
  T/C: 88 % of control

## COc1c2c(c(O)c3c1C(=O)c1cccc(O)c1C3=O)C(OC1CC(N)C(O)C(C)O1)CC(O)(C(C)=O)C2 (stereo unspecified)
dose: 12.5 mg/kg/injection, schedule: Q04DX003 (ip), vehicle: water
  T/C: 118 % of control
dose: 25.0 mg/kg/injection, schedule: Q04DX003 (ip), vehicle: water
  T/C: 118 % of control
dose: 50.0 mg/kg/injection, schedule: Q04DX003 (ip), vehicle: water
  T/C: 100 % of control

## CCOC(=O)c1c(C(=O)Nc2ccccc2)c(-c2ccccc2)n(NC(N)=O)c1C
[7]
  T/C: 104 % of control
[16]
  T/C: 105 % of control
[17]
  T/C: 98 % of control

## CCOC(=O)C(Cc1ccc(N(CCCl)CCCl)cc1)NC(=O)C(Cc1ccc(N)cc1)NC(C)=O (stereo unspecified)
dose: 3.12 mg/kg/injection, schedule: Q01DX005 (ip), vehicle: saline with Tween-80
  T/C: 123 % of control
dose: 6.25 mg/kg/injection, schedule: Q01DX005 (ip), vehicle: saline with Tween-80
  T/C: 159 % of control
dose: 12.5 mg/kg/injection, schedule: Q01DX005 (ip), vehicle: saline with Tween-80
  T/C: 207 % of control
dose: 25.0 mg/kg/injection, schedule: Q01DX005 (ip), vehicle: saline with Tween-80
  T/C: 298 % of control
[7]
  T/C: 104 % of control and 115 % of control and 117 % of control
[16]
  T/C: 114 % of control and 120 % of control
[17]
  T/C: 122 % of control
dose: 400.0 mg/kg/injection, schedule: Q01DX005 (ip), vehicle: saline with Tween-80
  T/C: 115 % of control

## Cc1ccc2nc3sc(=O)sc3nc2c1
[18]
  T/C: 101 % of control
[19]
  T/C: 107 % of control

## CCOC(=O)c1cc(=O)oc(=O)[nH]1
dose: 6.25 mg/kg/injection, schedule: Q04DX003 (ip), vehicle: Klucel (hydroxypropylcellulose) (HPC)
  T/C: 105 % of control
dose: 12.5 mg/kg/injection, schedule: Q04DX003 (ip), vehicle: Klucel (hydroxypropylcellulose) (HPC)
  T/C: 112 % of control
dose: 25.0 mg/kg/injection, schedule: Q04DX003 (ip), vehicle: Klucel (hydroxypropylcellulose) (HPC)
  T/C: 114 % of control
dose: 100.0 mg/kg/injection, schedule: Q04DX003 (ip), vehicle: Klucel (hydroxypropylcellulose) (HPC)
  T/C: 89 % of control
dose: 200.0 mg/kg/injection, schedule: Q04DX003 (ip), vehicle: Klucel (hydroxypropylcellulose) (HPC)
  T/C: 87 % of control

## CC1C=CC(c2ccccc2)C2C(=O)OC(=O)C12 (stereo unspecified)
[11]
  T/C: 116 % of control
[12]
  T/C: 114 % of control

## COc1ccc(-c2n[nH]c(-c3ccc(OC)cc3)c2N=Nc2ccc(S(=O)(=O)Nc3nnc(C)s3)cc2)cc1
dose: 100.0 mg/kg/injection, schedule: Q04DX002 (ip), vehicle: saline with Tween-80
  T/C: 103 % of control
dose: 200.0 mg/kg/injection, schedule: Q04DX002 (ip), vehicle: saline with Tween-80
  T/C: 103 % of control
dose: 400.0 mg/kg/injection, schedule: Q04DX002 (ip), vehicle: saline with Tween-80
  T/C: 94 % of control

## COC1=C(OC)C(=O)C(COC2CCCCO2)=CC1=O (stereo unspecified)
dose: 7.5 mg/kg/injection, schedule: Q01DX005 (ip), vehicle: saline with Tween-80
  T/C: 98 % of control
dose: 15.0 mg/kg/injection, schedule: Q01DX005 (ip), vehicle: saline with Tween-80
  T/C: 103 % of control

## Cc1cc(C)nc(NS(=O)(=O)c2ccc(N=c3c4ccccc4n(-c4ccccc4)c4ccccc34)cc2)n1
[7]
  T/C: 97 % of control
[16]
  T/C: 109 % of control
[17]
  T/C: 90 % of control

## NC(/N=C/c1cc(Cl)cc(Cl)c1O)=N\S(=O)(=O)c1ccc(N=Cc2cc(Cl)cc(Cl)c2O)cc1
[2]
  T/C: 98 % of control
[3]
  T/C: 91 % of control
[4]
  T/C: 98 % of control

## CC(C)c1ccc2c[n+]3ccccc3cc2c1
dose: 6.25 mg/kg/injection, schedule: Q01DX005 (ip), vehicle: Klucel (hydroxypropylcellulose) (HPC)
  T/C: 100 % of control and 108 % of control
dose: 12.5 mg/kg/injection, schedule: Q01DX005 (ip), vehicle: Klucel (hydroxypropylcellulose) (HPC)
  T/C: 106 % of control and 112 % of control

## Cc1nn(-c2ccccc2)nc1CBr
[7]
  T/C: 97 % of control
[16]
  T/C: 106 % of control

## CC(C)c1nccn1Cc1ccc(Cl)cc1Cl
[11]
  T/C: 88 % of control
[12]
  T/C: 99 % of control

## COc1ccc2c(c1OC)OCC(CN(C)C)C2=O (stereo unspecified)
dose: 15.0 mg/kg/injection, schedule: Q01DX005 (ip), vehicle: saline
  T/C: 100 % of control and 102 % of control
dose: 30.0 mg/kg/injection, schedule: Q01DX005 (ip), vehicle: saline
  T/C: 108 % of control and 111 % of control
[5]
  T/C: 106 % of control and 110 % of control and 114 % of control
[6]
  T/C: 114 % of control and 116 % of control

## NC(=O)/C(N=Nc1cc(S(=O)(=O)O)ccc1Cl)=N\Nc1cc(S(=O)(=O)O)ccc1Cl
dose: 50.0 mg/kg/injection, schedule: Q01DX005 (ip), vehicle: Klucel (hydroxypropylcellulose) (HPC)
  T/C: 100 % of control
dose: 100.0 mg/kg/injection, schedule: Q01DX005 (ip), vehicle: Klucel (hydroxypropylcellulose) (HPC)
  T/C: 91 % of control
dose: 200.0 mg/kg/injection, schedule: Q01DX005 (ip), vehicle: Klucel (hydroxypropylcellulose) (HPC)
  T/C: 94 % of control

## CCC1COC(CC)N1 (stereo unspecified)
[7]
  T/C: 113 % of control and 95 % of control
[16]
  T/C: 103 % of control

## c1ccc2c(C[Se][Se]Cc3cccc4ccccc34)cccc2c1
[14]
  T/C: 90 % of control
[15]
  T/C: 90 % of control

## CN(C)c1ccc(C2OC3(CCCCC3)C[N+]23CCCC3)cc1 (stereo unspecified)
[8]
  T/C: 100 % of control
[9]
  T/C: 104 % of control
[10]
  T/C: 86 % of control

## [N-]=[N+]=NC12CC3CC(CC(C3)C1)C2
[7]
  T/C: 100 % of control
[16]
  T/C: 101 % of control
[17]
  T/C: 106 % of control

## CC(C)n1c(Cl)c(C=O)c2ccccc21
dose: 100.0 mg/kg/injection, schedule: Q01DX001 (ip), vehicle: Klucel (hydroxypropylcellulose) (HPC)
  T/C: 94 % of control
dose: 200.0 mg/kg/injection, schedule: Q01DX001 (ip), vehicle: Klucel (hydroxypropylcellulose) (HPC)
  T/C: 87 % of control
dose: 400.0 mg/kg/injection, schedule: Q01DX001 (ip), vehicle: Klucel (hydroxypropylcellulose) (HPC)
  T/C: 98 % of control

## CC(C)(C)c1cc(-n2nc3ccccc3[n+]2[O-])c(O)c(C(C)(C)C)c1
[11]
  T/C: 100 % of control
[12]
  T/C: 94 % of control
[13]
  T/C: 91 % of control

## Cc1ccc(N=NC2Sc3nc4ccccc4n3C2=O)cc1 (stereo unspecified)
[18]
  T/C: 101 % of control
[19]
  T/C: 97 % of control
dose: 240.0 mg/kg/injection, schedule: Q01DX005 (ip), vehicle: Klucel (hydroxypropylcellulose) (HPC)
  T/C: 88 % of control

## COC1(OC)C2C=CC1CC2
[2]
  T/C: 107 % of control and 116 % of control
[3]
  T/C: 101 % of control
[4]
  T/C: 109 % of control
